Tests used:
Experiment in all cases: relative viability (nuclei count vs DMSO), 5 days (fraction); higher = more cells survive
Dinaciclib + Pemetrexed = compound: CCc1cnn2c(NCc3ccc[n+]([O-])c3)cc(N3CCCC[C@H]3CCO)nc12 [Dinaciclib] + Nc1nc2[nH]cc(CCc3ccc(C(=O)N[C@@H](CCC(=O)O)C(=O)O)cc3)c2c(=O)[nH]1 [Pemetrexed] (partner 0.2 µM)
Summary of the method: (§1)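 Five library-drug doses in √10 steps were combined with a fixed anchor-drug dose, or a single drug was given alone, by pin tool to lung cancer cell lines in 1536-well plates the day after seeding. Nuclei were stained and counted after 5 days. Relative viability is the nuclei count in treated wells over that in vehicle wells, taken as the median of duplicate plates.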

Dinaciclib + Tozasertib = compound: CCc1cnn2c(NCc3ccc[n+]([O-])c3)cc(N3CCCC[C@H]3CCO)nc12 [Dinaciclib] + Cc1cc(Nc2cc(N3CCN(C)CC3)nc(Sc3ccc(NC(=O)C4CC4)cc3)n2)n[nH]1 [Tozasertib] (partner 0.1 µM)
Summary of the method: as §1

Dinaciclib + OSI-027 = compound: CCc1cnn2c(NCc3ccc[n+]([O-])c3)cc(N3CCCC[C@H]3CCO)nc12 [Dinaciclib] + COc1cccc2cc(-c3nc([C@H]4CC[C@H](C(=O)O)CC4)n4ncnc(N)c34)[nH]c12 [OSI-027] (partner 0.5 µM)
Summary of the method: as §1

Dinaciclib + Palbociclib = compound: CCc1cnn2c(NCc3ccc[n+]([O-])c3)cc(N3CCCC[C@H]3CCO)nc12 [Dinaciclib] + CC(=O)c1c(C)c2cnc(Nc3ccc(N4CCNCC4)cn3)nc2n(C2CCCC2)c1=O [Palbociclib] (partner 0.5 µM)
Summary of the method: as §1

Dinaciclib + Bortezomib = compound: CCc1cnn2c(NCc3ccc[n+]([O-])c3)cc(N3CCCC[C@H]3CCO)nc12 [Dinaciclib] + CC(C)C[C@H](NC(=O)[C@H](Cc1ccccc1)NC(=O)c1cnccn1)B(O)O [Bortezomib] (partner 0.002 µM)
Summary of the method: as §1

Cell Line | relative viability (Dinaciclib + Pemetrexed; first compound 0.009487 µM) | relative viability (Dinaciclib + Pemetrexed; first compound 0.03 µM) | relative viability (Dinaciclib + Pemetrexed; first compound 0.09487 µM) | relative viability (Dinaciclib + Pemetrexed; first compound 0.3 µM) | relative viability (Dinaciclib + Tozasertib; first compound 0.009487 µM) | relative viability (Dinaciclib + Tozasertib; first compound 0.03 µM) | relative viability (Dinaciclib + Tozasertib; first compound 0.09487 µM) | relative viability (Dinaciclib + Tozasertib; first compound 0.3 µM) | relative viability (Dinaciclib + OSI-027; first compound 0.009487 µM) | relative viability (Dinaciclib + OSI-027; first compound 0.03 µM) | relative viability (Dinaciclib + OSI-027; first compound 0.09487 µM) | relative viability (Dinaciclib + OSI-027; first compound 0.3 µM) | relative viability (Dinaciclib + Palbociclib; first compound 0.009487 µM) | relative viability (Dinaciclib + Palbociclib; first compound 0.03 µM) | relative viability (Dinaciclib + Palbociclib; first compound 0.09487 µM) | relative viability (Dinaciclib + Palbociclib; first compound 0.3 µM) | relative viability (Dinaciclib + Bortezomib; first compound 0.009487 µM) | relative viability (Dinaciclib + Bortezomib; first compound 0.03 µM) | relative viability (Dinaciclib + Bortezomib; first compound 0.09487 µM) | relative viability (Dinaciclib + Bortezomib; first compound 0.3 µM)
NCI-H2347 | 0.459 | 0.319 | 0.228 | 0.224 | 0.425 | 0.17 | 0.138 | 0.174 | 0.437 | 0.204 | 0.144 | 0.151 | 0.506 | 0.321 | 0.21 | 0.212 | 1.23 | 0.226 | 0.239 | 0.215
H3255 | 0.633 | 0.423 | 0.227 | 0.213 | 0.678 | 0.578 | 0.256 | 0.218 | 0.593 | 0.394 | 0.279 | 0.226 | 0.315 | 0.257 | 0.232 | 0.225 | 0.734 | 0.227 | 0.15 | 0.169
NCI-H441 | 0.263 | 0.168 | 0.12 | 0.128 | 0.603 | 0.223 | 0.23 | 0.175 | 0.519 | 0.185 | 0.202 | 0.153 | 0.197 | 0.148 | 0.125 | 0.113 | 0.45 | 0.158 | 0.2 | 0.143
NCI-H2228 | 0.309 | 0.152 | 0.0897 | 0.0862 | 0.333 | 0.137 | 0.0995 | 0.0912 | 0.522 | 0.167 | 0.0767 | 0.124 | 0.651 | 0.115 | 0.0872 | 0.0982 | 0.934 | 0.0992 | 0.119 | 0.102
NCI-H1975 | 0.275 | 0.288 | 0.146 | 0.16 | 0.927 | 0.416 | 0.082 | 0.071 | 0.783 | 0.347 | 0.0912 | 0.0908 | 0.578 | 0.188 | 0.102 | 0.105 | 0.29 | 0.126 | 0.109 | 0.12
NCI-H647 | 0.149 | 0.0819 | 0.0645 | 0.0608 | 0.21 | 0.0983 | 0.0486 | 0.0487 | 0.499 | 0.206 | 0.0824 | 0.0778 | 0.18 | 0.111 | 0.0539 | 0.0401 | 0.208 | 0.0668 | 0.0726 | 0.0623
A-427 | 0.883 | 0.156 | 0.101 | 0.112 | 0.236 | 0.0917 | 0.0666 | 0.0775 | 0.385 | 0.143 | 0.0922 | 0.0796 | 0.437 | 0.142 | 0.126 | 0.127 | 0.969 | 0.487 | 0.0789 | 0.0623
LXF-289 | 0.815 | 0.254 | 0.0816 | 0.0773 | 0.183 | 0.149 | 0.0561 | 0.0572 | 0.948 | 0.4 | 0.0693 | 0.0617 | 0.598 | 0.213 | 0.0821 | 0.108 | 1.04 | 0.193 | 0.0851 | 0.0696
NCI-H1437 | 0.343 | 0.149 | 0.158 | 0.12 | 0.356 | 0.165 | 0.141 | 0.131 | 1 | 0.506 | 0.132 | 0.132 | 0.245 | 0.203 | 0.117 | 0.119 | 0.376 | 0.205 | 0.0732 | 0.0751
RERF-LC-KJ | 0.489 | 0.161 | 0.126 | 0.121 | 0.45 | 0.18 | 0.179 | 0.167 | 0.461 | 0.177 | 0.185 | 0.182 | 0.907 | 0.216 | 0.139 | 0.157 | 1.1 | 0.327 | 0.157 | 0.173
HCC-44 | 0.665 | 0.695 | 0.388 | 0.351 | 0.594 | 0.204 | 0.206 | 0.184 | 0.286 | 0.208 | 0.159 | 0.17 | 0.9 | 0.798 | 0.367 | 0.342 | 0.883 | 0.115 | 0.106 | 0.102
EPLC-272H | 0.189 | 0.0576 | 0.0509 | 0.0711 | 0.229 | 0.0357 | 0.0443 | 0.0467 | 0.288 | 0.152 | 0.0567 | 0.0523 | 0.275 | 0.0744 | 0.0435 | 0.0386 | 0.89 | 0.57 | 0.0541 | 0.0535
NCI-H322M | 0.569 | 0.326 | 0.313 | 0.343 | 0.417 | 0.263 | 0.303 | 0.259 | 0.419 | 0.286 | 0.323 | 0.285 | 0.441 | 0.392 | 0.373 | 0.384 | 1.26 | 1.26 | 0.52 | 0.187
